Reference: patent US9476099B2 (TRUSTEES OF DARTMOUTH COLLEGE, priority 2012, dated 2016)

Tested on: gene promoters in NT2/D1-R1 control and DNMT3B knockdown cells
Test: Genome-wide promoter methylation analysis, HumanMethylation27 BeadChip (Table 15)
Format: cell-based, human
Settings: sh-3b + 5aza
Method: DNA methylation analysis was performed in samples in triplicate using the […] […] assay with the HumanMethylation27 BeadChip ([…]) and the BeadChip was scanned on the BeadArray Reader ([…]), according to the manufacturer's instructions. Raw data was normalized and analyzed with Genome Studio software ([…]). The HumanMethylation27 BeadChip assays 27,578 CpGs covering more than 14,000 genes, mostly from promoter regions. […] Hierarchical clustering was performed as stated above. HumanMethylation27 BeadChip data and gene expression microarray data were submitted to NCBI GEO.

SMILES: Nc1ncn([C@H]2C[C@H](O)[C@@H](CO)O2)c(=O)n1 [5aza]
- SERPING1 cg12783776 promoter methylation Mean: 0.350
- SFRS16 cg19317638 promoter methylation Mean: 0.369
- SFXN3 cg04880063 promoter methylation Mean: 0.188
- SH3BGRL2 cg03080985 promoter methylation Mean: 0.260
- SHH cg25167838 promoter methylation Mean: 0.127
- SKIP cg04072323 promoter methylation Mean: 0.310
- SLC30A2 cg05674944 promoter methylation Mean: 0.337
- SMCP cg09542291 promoter methylation Mean: 0.504
- SNX9 cg26845300 promoter methylation Mean: 0.722
- SOX17 cg21226224 promoter methylation Mean: 0.495
- SPRR1B cg24884084 promoter methylation Mean: 0.334
- SSH1 cg11747499 promoter methylation Mean: 0.292
- SSTR1 cg27590397 promoter methylation Mean: 0.900
- TAC1 cg07550362 promoter methylation Mean: 0.507
- TADA3L cg09279263 promoter methylation Mean: 0.350
- TERT cg02545192 promoter methylation Mean: 0.311
- TNFSF10 cg16555388 promoter methylation Mean: 0.430
- TNRC4 cg26093148 promoter methylation Mean: 0.661
- TNRC15 cg07230446 promoter methylation Mean: 0.243
- TRAF3 cg24165760 promoter methylation Mean: 0.797
- TRIM2 cg12793610 promoter methylation Mean: 0.506
- TRIM36 cg10693071 promoter methylation Mean: 0.545
- TRPM3 cg20555507 promoter methylation Mean: 0.291
- UNC5D cg00297600 promoter methylation Mean: 0.384
- WDR13 cg25053301 promoter methylation Mean: 0.211
- ZFHX1B cg15377518 promoter methylation Mean: 0.472
- ZNF222 cg09757277 promoter methylation Mean: 0.355
- cg07512517 promoter methylation Mean: 0.473
- Mean promoter methylation, ABCA3 cg02331561 (DNMT3B knockdown cells): 0.145
- Mean promoter methylation, ABLIM3 cg05026186 (DNMT3B knockdown cells): 0.240
- Mean promoter methylation, ACTL6B cg08572611 (DNMT3B knockdown cells): 0.138
- Mean promoter methylation, ANKRD46 cg23737055 (DNMT3B knockdown cells): 0.257
- Mean promoter methylation, ARNT2 cg17788682 (DNMT3B knockdown cells): 0.139
- Mean promoter methylation, B4GALNT3 cg05769161 (DNMT3B knockdown cells): 0.271
- Mean promoter methylation, BTBD1 cg16958189 (DNMT3B knockdown cells): 0.259
- Mean promoter methylation, C1RL cg22593785 (DNMT3B knockdown cells): 0.188
- Mean promoter methylation, C10orf10 cg17186163 (DNMT3B knockdown cells): 0.237
- Mean promoter methylation, C10orf72 cg02569613 (DNMT3B knockdown cells): 0.312
- Mean promoter methylation, C12orf34 cg01335367 (DNMT3B knockdown cells): 0.420
- Mean promoter methylation, C17orf40 cg18042079 (DNMT3B knockdown cells): 0.213
- Mean promoter methylation, C19orf30 cg07456645 (DNMT3B knockdown cells): 0.254
- Mean promoter methylation, C20orf29 cg09158909 (DNMT3B knockdown cells): 0.226
- Mean promoter methylation, C22orf9 cg11221513 (DNMT3B knockdown cells): 0.229
- Mean promoter methylation, CACNA1G cg18454685 (DNMT3B knockdown cells): 0.286
- Mean promoter methylation, CAMKK2 cg01369981 (DNMT3B knockdown cells): 0.191
- Mean promoter methylation, CART cg23300372 (DNMT3B knockdown cells): 0.160
- Mean promoter methylation, CCKBR cg13346411 (DNMT3B knockdown cells): 0.197
- Mean promoter methylation, CDC42EP1 cg13951472 (DNMT3B knockdown cells): 0.217
- Mean promoter methylation, CDKN2A cg10895543 (DNMT3B knockdown cells): 0.168
- Mean promoter methylation, CHST8 cg24739326 (DNMT3B knockdown cells): 0.319
- Mean promoter methylation, CPSF1 cg20326853 (DNMT3B knockdown cells): 0.241
- Mean promoter methylation, CSMD1 cg22619018 (DNMT3B knockdown cells): 0.201
- Mean promoter methylation, DCTN3 cg22579849 (DNMT3B knockdown cells): 0.325
- Mean promoter methylation, DDX42 cg05797656 (DNMT3B knockdown cells): 0.192
- Mean promoter methylation, DGKD cg25506396 (DNMT3B knockdown cells): 0.202
- Mean promoter methylation, DGKI cg06277657 (DNMT3B knockdown cells): 0.190
- Mean promoter methylation, DKK2 cg01404615 (DNMT3B knockdown cells): 0.398
- Mean promoter methylation, DUSP8 cg02271621 (DNMT3B knockdown cells): 0.135
- Mean promoter methylation, EHD2 cg12603043 (DNMT3B knockdown cells): 0.176
- Mean promoter methylation, ELK1 cg21860846 (DNMT3B knockdown cells): 0.181
- Mean promoter methylation, EMP3 cg01795122 (DNMT3B knockdown cells): 0.127
- Mean promoter methylation, EYA4 cg01805282 (DNMT3B knockdown cells): 0.174
- Mean promoter methylation, FAM70B cg15350194 (DNMT3B knockdown cells): 0.222
- Mean promoter methylation, FAM73B cg00729541 (DNMT3B knockdown cells): 0.213
- Mean promoter methylation, FCHSD2 cg17114257 (DNMT3B knockdown cells): 0.179
- Mean promoter methylation, FLJ20273 cg01704534 (DNMT3B knockdown cells): 0.222
- Mean promoter methylation, FLJ20273 cg15967525 (DNMT3B knockdown cells): 0.362
- Mean promoter methylation, FLJ42486 cg03734874 (DNMT3B knockdown cells): 0.287
- Mean promoter methylation, GAB3 cg12938998 (DNMT3B knockdown cells): 0.235
- Mean promoter methylation, GALR1 cg04534765 (DNMT3B knockdown cells): 0.176
- Mean promoter methylation, GCN5L2 cg08434547 (DNMT3B knockdown cells): 0.249
- Mean promoter methylation, GNAS cg00943909 (DNMT3B knockdown cells): 0.097
- Mean promoter methylation, HBQ1 cg07703401 (DNMT3B knockdown cells): 0.220
- Mean promoter methylation, HCN1 cg11285003 (DNMT3B knockdown cells): 0.202
- Mean promoter methylation, HES6 cg24127874 (DNMT3B knockdown cells): 0.377
- Mean promoter methylation, HEYL cg25462291 (DNMT3B knockdown cells): 0.218
- Mean promoter methylation, HRH3 cg08186362 (DNMT3B knockdown cells): 0.297
- Mean promoter methylation, ICAM1 cg22874046 (DNMT3B knockdown cells): 0.144
- Mean promoter methylation, ID2 cg23525180 (DNMT3B knockdown cells): 0.201
- Mean promoter methylation, IGFBP3 cg04796162 (DNMT3B knockdown cells): 0.230
- Mean promoter methylation, KATNB1 cg15153383 (DNMT3B knockdown cells): 0.265
- Mean promoter methylation, KCNAB1 cg23873703 (DNMT3B knockdown cells): 0.334
- Mean promoter methylation, KCNC2 cg18573383 (DNMT3B knockdown cells): 0.159
- Mean promoter methylation, KIAA1822 cg02867079 (DNMT3B knockdown cells): 0.345
- Mean promoter methylation, KIAA1840 cg06121469 (DNMT3B knockdown cells): 0.191
- Mean promoter methylation, KRTCAP2 cg11278262 (DNMT3B knockdown cells): 0.257
- Mean promoter methylation, LGALS1 cg00292662 (DNMT3B knockdown cells): 0.230
- Mean promoter methylation, LGR6 cg23578193 (DNMT3B knockdown cells): 0.187
- Mean promoter methylation, LOX cg06508445 (DNMT3B knockdown cells): 0.101
- Mean promoter methylation, MAP6D1 cg03705396 (DNMT3B knockdown cells): 0.201
- Mean promoter methylation, MGC9850 cg21097640 (DNMT3B knockdown cells): 0.218
- Mean promoter methylation, MRPL38 cg11653266 (DNMT3B knockdown cells): 0.155
- Mean promoter methylation, MT cg14078309 (DNMT3B knockdown cells): 0.154
- Mean promoter methylation, MYOD1 cg18555440 (DNMT3B knockdown cells): 0.321
- Mean promoter methylation, OGG1 cg25415932 (DNMT3B knockdown cells): 0.240
- Mean promoter methylation, OR10J1 cg25076881 (DNMT3B knockdown cells): 0.335
- Mean promoter methylation, OSTbeta cg16029760 (DNMT3B knockdown cells): 0.144
- Mean promoter methylation, PABPC4 cg12585282 (DNMT3B knockdown cells): 0.221
- Mean promoter methylation, PDE8B cg18089852 (DNMT3B knockdown cells): 0.130
- Mean promoter methylation, PHLDA2 cg01263716 (DNMT3B knockdown cells): 0.248
- Mean promoter methylation, PHLDA2 cg04720330 (DNMT3B knockdown cells): 0.195
- Mean promoter methylation, PIB5PA cg18053607 (DNMT3B knockdown cells): 0.247
- Mean promoter methylation, PLOD1 cg23286660 (DNMT3B knockdown cells): 0.235
- Mean promoter methylation, PPCDC cg11632617 (DNMT3B knockdown cells): 0.269
- Mean promoter methylation, PRDM12 cg09191327 (DNMT3B knockdown cells): 0.240
- Mean promoter methylation, PRMT8 cg23739862 (DNMT3B knockdown cells): 0.116
- Mean promoter methylation, PTPRO cg19402885 (DNMT3B knockdown cells): 0.303
- Mean promoter methylation, PTPRO cg27196745 (DNMT3B knockdown cells): 0.267
- Mean promoter methylation, R3HDML cg17692403 (DNMT3B knockdown cells): 0.288
- Mean promoter methylation, RAB37 cg12448933 (DNMT3B knockdown cells): 0.241
- Mean promoter methylation, RASA4 cg05749161 (DNMT3B knockdown cells): 0.102
- Mean promoter methylation, RASL11A cg06611744 (DNMT3B knockdown cells): 0.208
- Mean promoter methylation, SCAMP3 cg01745448 (DNMT3B knockdown cells): 0.209
- Mean promoter methylation, SCARA5 cg10171125 (DNMT3B knockdown cells): 0.239
- Mean promoter methylation, SEC14L2 cg14452140 (DNMT3B knockdown cells): 0.337
- Mean promoter methylation, SH3BGRL3 cg03100146 (DNMT3B knockdown cells): 0.341
- Mean promoter methylation, SHH cg00577464 (DNMT3B knockdown cells): 0.212
- Mean promoter methylation, SLC6A5 cg20632573 (DNMT3B knockdown cells): 0.192
- Mean promoter methylation, SLC25A22 cg02973416 (DNMT3B knockdown cells): 0.318
- Mean promoter methylation, SLC35C2 cg02413850 (DNMT3B knockdown cells): 0.155
- Mean promoter methylation, SLIT1 cg07143898 (DNMT3B knockdown cells): 0.176
- Mean promoter methylation, SORCS3 cg16787600 (DNMT3B knockdown cells): 0.384
- Mean promoter methylation, SOX15 cg01029592 (DNMT3B knockdown cells): 0.171
- Mean promoter methylation, SOX15 cg13098960 (DNMT3B knockdown cells): 0.261
- Mean promoter methylation, SOX17 cg02919422 (DNMT3B knockdown cells): 0.329
- Mean promoter methylation, STXBP3 cg11666924 (DNMT3B knockdown cells): 0.194
- Mean promoter methylation, SUSD2 cg23349242 (DNMT3B knockdown cells): 0.329
- Mean promoter methylation, TBXA2R cg09998229 (DNMT3B knockdown cells): 0.256
- Mean promoter methylation, THAP3 cg11688219 (DNMT3B knockdown cells): 0.344
- Mean promoter methylation, TMEM25 cg20001829 (DNMT3B knockdown cells): 0.238
- Mean promoter methylation, TMEM106C cg25884854 (DNMT3B knockdown cells): 0.229
- Mean promoter methylation, TRAPPC1 cg01667702 (DNMT3B knockdown cells): 0.231
- Mean promoter methylation, UBA52 cg24356797 (DNMT3B knockdown cells): 0.145
- Mean promoter methylation, UNQ2446 cg10574499 (DNMT3B knockdown cells): 0.218
- Mean promoter methylation, VPREB1 cg18441959 (DNMT3B knockdown cells): 0.230
- Mean promoter methylation, ZGPAT cg04078896 (DNMT3B knockdown cells): 0.191
- Mean promoter methylation, ZGPAT cg18611245 (DNMT3B knockdown cells): 0.379
- Mean promoter methylation, ZNF585B cg03751813 (DNMT3B knockdown cells): 0.182
- Mean promoter methylation, ZNF702 cg07559730 (DNMT3B knockdown cells): 0.221
